# Test results from US20180028516A1, “METHODS AND DEVICES FOR THE TREATMENT OF OCULAR DISEASES IN HUMAN SUBJECTS” (CLEARSIDE BIOMEDICAL, INC., priority 2012, published 2018).
# Tests used:
# [1] = system: LPS-induced acute posterior uveitis; assay: Ocular histopathology and histologic inflammatory scores in porcine uveitis study (Example 13); format: in vivo
# Protocol: Pigs were euthanized on study day 3 after clinical scoring, OCT, ERG, and wide-field ocular fundus photography was completed. After euthanasia with an overdose of intravenous barbiturate, both eyes were removed, Aqueous humor (All) was aspirated and a 1 mL sample of vitreous humor (VH) was collected from each eye immediately after euthanasia. The globe was then fixed in Davidson's solution for 24 hours, followed by alcohol. Central, saggital sections of each globe, including the optic nerve, were stained with hematoxylin and eosin and examined by light microscopy. Two pathology-trained observers, masked to the study groups, graded degree of inflammatory infiltrate of the ocular anterior and posterior segments. The grading scale for the anterior and posterior ocular segment used was as follows: 0=no evidence of cellular infiltrate; 1=a few cells infiltrated (mild)−focal; 2=a few cells infiltrated (mild)−diffuse; 3=moderate number of cells infiltrated; and 4=high amount of cellular infiltrate.
# Differences were considered significant at P<0.05.
# [2] = parameters: species or system New Zealand White rabbit; conditions: rabbit, in vivo
# Protocol: (§1) In this study, the ocular tolerability and toxicokinetics of suprachoroidal administration of Ting triamcinolone acetonide (TA) using microneedle was determined, in the New Zealand White rabbit as an animal model.
# (§2) On Day 0, New Zealand White (NZW) rabbits (4/sex/group/terminal time point, 48 total) were administered a single bilateral suprachoroidal injection of 100 μL of 4 ma TA (40 mg/mL) or vehicle, using a 33 g 750 μm microneedle. Clinical Observations, body weights, food consumption, slit lamp biomicroscopy with McDonald-Shadduck scoring, indirect ophthalmoscopy, intraocular pressure assessment (IOP), central corneal thickness (CCT), electroretinography (ERG), serum chemistry and hematology, and systemic exposure were assessed up to 13 weeks post-dose. Animals were sacrificed on Day 1 or Week 13 and were evaluated for macroscopic observations at necropsy and ocular histopathology. Four animals/sex were given an additional suprachoroidal administration on Day 90, and will be followed for an additional 13 weeks.
# [3] = Ophthalmic examinations and clinical observations after 4 mg SCS TA (Example 16); format: in vivo, New Zealand White rabbit; conditions: single bilateral suprachoroidal injection of 4 mg TA, albino rabbit
# Protocol: as §1, §2
# [4] = Group 3: LPS intravitreal/low dose (0.2 mg) TA SCS
# [5] = Group 4: LPS intravitreal/high dose (2.0 mg) TA SCS
# [6] = Group 5: LPS intravitreal/low dose (0.2 mg) TA IVT
# [7] = Group 6 (printed: LPS intravitreal/high dose TA SCS)
smiles,measurement,setting,value
"CC1(C)O[C@@H]2C[C@H]3[C@@H]4CCC5=CC(=O)C=C[C@]5(C)[C@@]4(F)[C@@H](O)C[C@]3(C)[C@]2(C(=O)CO)O1 [TA, triamcinolone acetonide]",inflammation or histologic evidence of toxicity in the SCS,[1]; 2.0 mg TA SCS (Group 4),no inflammation or histologic evidence of toxicity in the SCS
same,"histopathology, inner retinal layers and vitreous",[1]; [4],moderate infiltrate of neutrophils
same,"histopathology, iris",[1]; [4],mild neutrophilic infiltrate
same,"histopathology, anterior segment",[1]; [5],normal
same,"histopathology, vitreous",[1]; [5],very mild neutrophilic infiltration
same,"mean histologic inflammatory scores in the ocular posterior segment compared with Groups 2, 5 and 6",[1]; Group 4: high dose TA SCS,significantly lower
same,"histopathology, anterior uvea",[1]; [6],mild neurophilic infiltrate
same,"histopathology, vitreous",[1]; [6],moderate to severe cellular infiltrate
same,mean histologic inflammatory scores in the anterior segment compared with Groups 4 and 6,[1]; Group 5: low dose TA IVT,significantly higher
same,"histopathology, anterior uvea",[1]; [7],mild neutrophilic infiltrate
same,"histopathology, vitreous",[1]; [7],moderate vitreal infiltrates
same,mean histologic inflammatory scores compared with vehicle treated eyes (Group 2),[1]; Group 6: high dose IVT TA,significantly lower
same,tissue structural or toxicologic changes on histopathology,"[1]; all groups, 0.2 or 2.0 mg TA SCS or IVT",None of the eyes examined in any group had evidence of substantial tissue structural or toxicologic changes
same,IOP change related to the injection procedure,[2],decrease
same,adverse effects related to the method of administration or 4 mg TA as assessed by histopathology,[2],no adverse effects
same,central corneal thickness (CCT),[2],slight decrease
same,mean Cmax in plasma,[2]; 4 mg,12 ng/mL
same,tolerability,[3],well tolerated
